Test results published in patent US7737155B2, “Nitrogen-containing heterocyclic compounds and methods of use thereof” (Schering Corporation, priority 2005, dated 2010).

Molecular target: recombinant human nicotinic acid receptor (NAR) (Homo sapiens, UniProt Q8TDS4)
Assay: Nicotinic Acid Receptor Assay: inhibition of forskolin-stimulated cAMP accumulation in CHO cells (MesoScale Discovery cAMP kit)
Type: cell-based
Settings: NA EC50 camp, inhibition of forskolin-stimulated cAMP accumulation, CHO cells expressing recombinant human NAR
Procedure, shortened: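 Compounds were diluted in PBS containing 6 μM forskolin and incubated with cells for 30 min at room temperature. cAMP was quantified by the MesoScale kit against an on-plate standard curve.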

Chain of recombinant human nicotinic acid receptor (NAR) (Q8TDS4 whole entry): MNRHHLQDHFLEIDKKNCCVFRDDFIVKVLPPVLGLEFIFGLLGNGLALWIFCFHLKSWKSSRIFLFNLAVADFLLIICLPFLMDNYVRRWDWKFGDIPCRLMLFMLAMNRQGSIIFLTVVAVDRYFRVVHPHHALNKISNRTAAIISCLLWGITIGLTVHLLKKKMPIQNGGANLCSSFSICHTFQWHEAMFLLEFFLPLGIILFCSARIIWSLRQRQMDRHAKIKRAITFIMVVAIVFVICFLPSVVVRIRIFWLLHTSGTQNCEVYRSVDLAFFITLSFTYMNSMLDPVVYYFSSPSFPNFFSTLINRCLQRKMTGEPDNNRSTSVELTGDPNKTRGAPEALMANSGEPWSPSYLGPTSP

Structure (SMILES) | EC50 [µM]
CCCCCc1cc(=O)oc2nc(C(F)F)[nH]c(=O)c12 [Compound 743] | 0.212
O=c1cc(CCC2CCC2)c2c(=O)[nH]c(C(F)F)nc2o1 [Compound 748] | 0.286
CCCCc1cc(=O)oc2nc(C(F)F)[nH]c(=O)c12 [Compound 750] | 1.89
O=c1cc(CCC2CC2)c2c(=O)[nH]c(C(F)F)nc2o1 [Compound 752] | 0.248
CCc1cc(=O)oc2nc[nH]c(=O)c12 [Compound 807] | > 10
CC1(CCCc2cc(=O)oc3nc(C(F)F)[nH]c(=O)c23)CC1 [Compound 811] | 0.022

Same assay, conditions: inhibition of forskolin-stimulated cAMP accumulation, CHO cells expressing recombinant human NAR; read-out: NA EC50 camp

Structure (SMILES) | EC50 [µM]
CCCCCc1cc(=O)oc2nc(C(F)F)nc(OCc3ccc(OC)cc3)c12 [Compound 742] | 1.07
CCCCCc1cc(=O)oc2nc(CF)[nH]c(=O)c12 [Compound 744] | 0.128
O=c1cc(CCC2CCCC2)c2c(=O)[nH]c(CF)nc2o1 [Compound 747] | 1.23
O=c1cc(CCC2CCC2)c2c(=O)[nH]c(CF)nc2o1 [Compound 749] | 0.182
CSCCCc1cc(=O)oc2nc(CF)[nH]c(=O)c12 [Compound 751] | 0.487
O=c1cc(CCC2CC2)c2c(=O)[nH]c(CF)nc2o1 [Compound 753] | 0.228
CCCCCCc1cc(=O)oc2nc(CF)[nH]c(=O)c12 [Compound 755] | 0.286
N#Cc1c(CCCC2CC2)c2c(=O)[nH]c(=O)[nH]c2oc1=O [Compound 759] | 2.33
O=c1cc(CCC2CCCC2)c2c(=O)[nH]c(C(F)(F)F)nc2o1 [Compound 763] | 7.73
CCCCc1cc(=O)oc2nc(C(F)(F)F)[nH]c(=O)c12 [Compound 764] | 8.92
CCc1cc(=O)oc2[nH]c(=O)n(OC)c(=O)c12 [Compound 768] | 0.384
COn1c(=O)[nH]c2oc(=O)cc(CCC3CCC3)c2c1=O [Compound 769] | 0.019
COn1c(=O)[nH]c(=O)c2c(CCC3CCC3)cc(=O)oc21 [Compound 771] | 0.017
COn1c(=O)[nH]c2oc(=O)cc(CCC3CCCC3)c2c1=O [Compound 772] | 0.039
COn1c(=O)[nH]c(=O)c2c(CCC3CCCC3)cc(=O)oc21 [Compound 773] | 0.0485
COn1c(=O)[nH]c2oc(=O)cc(CCCC3CC3)c2c1=O [Compound 774] | 0.028
CCOn1c(=O)[nH]c2oc(=O)cc(CCC3CCC3)c2c1=O [Compound 777] | 5.6
CCCCc1cc(=O)oc2c1c(=O)[nH]c(=O)n2OCC [Compound 778] | 9.15
CCCCc1cc(=O)oc2[nH]c(=O)n(OCC)c(=O)c12 [Compound 779] | 2.85
O=c1cc(CCC2CC2)c2c(=O)n(C3CCC3)c(=O)[nH]c2o1 [Compound 780] | 0.036
CCn1c(=O)[nH]c2oc(=O)cc(CCC3CCCC3)c2c1=O [Compound 781] | 0.068

Structure (SMILES) | EC50 [µM]
CCn1c(=O)[nH]c2oc(=O)cc(CCCC3CC3)c2c1=O [Compound 782] | 0.094
CCn1c(=O)[nH]c2oc(=O)cc(CCC3CCC3)c2c1=O [Compound 783] | 0.064
O=c1cc(CCCC2CC2)c2c(=O)n(C3CCC3)c(=O)[nH]c2o1 [Compound 784] | 0.0179
CCOc1nc(=O)[nH]c2oc(=O)cc(CCC3CCC3)c12 [Compound 786] | 5.33
CCCCc1cc(=O)oc2[nH]c(=O)nc(OCCOC)c12 [Compound 787] | 0.681
CCCCc1cc(=O)oc2[nH]c(=O)nc(OCF)c12 [Compound 788] | 0.0385
O=c1nc(OCF)c2c(CCCC3CC3)cc(=O)oc2[nH]1 [Compound 789] | 0.088
CCCCc1cc(=O)oc2nc(O[C@H]3C[C@H](COCc4ccccc4)C3)[nH]c(=O)c12 [Compound 791] | 0.05
CCCCc1cc(=O)oc2c1c(=O)[nH]c(=O)n2N1CCOCC1 [Compound 796] | > 10
CCCCc1cc(=O)oc2[nH]c(=O)n(N3CCOCC3)c(=O)c12 [Compound 797] | > 1
CCCCc1cc(=O)oc2c1c(=O)[nH]c(=O)n2OCc1ccccc1 [Compound 798] | > 10
CCCCc1cc(=O)oc2[nH]c(=O)n(OCc3ccccc3)c(=O)c12 [Compound 799] | > 10
COCCn1c(=O)[nH]c2oc(=O)cc(CCC3CC3)c2c1=O [Compound 800] | > 10
COCCn1c(=O)[nH]c(=O)c2c(CCC3CC3)cc(=O)oc21 [Compound 801] | > 10
O=c1cc(CCCC2CC2)c2c(=O)n(CF)c(=O)[nH]c2o1 [Compound 802] | 0.012
CCCCc1cc(=O)oc2[nH]c(=O)n(CF)c(=O)c12 [Compound 803] | 3.45
O=c1cc(CCCC2CC2)c2c(=O)n(CCF)c(=O)[nH]c2o1 [Compound 804] | 0.178
CCCCc1cc(=O)oc2c1c(=O)[nH]c(=O)n2O [Compound 805] | 2.06
CCCCc1cc(=O)oc2[nH]c(=O)n(O)c(=O)c12 [Compound 806] | 0.256
CCc1cc(=O)n(C)c2[nH]c(=O)[nH]c(=O)c12 [Compound 808] | > 10
CCCCc1cc(=O)oc2nc(CF)[nH]c(=O)c12 [Compound 809] | 0.187

Structure (SMILES) | EC50 [µM]
Cc1cc(=O)oc2nc(CF)[nH]c(=O)c12 [Compound 810] | > 10
CCC(C)CCc1cc(=O)oc2nc(C(F)F)[nH]c(=O)c12 (stereo not shown) [Compound 812] | 0.04
CCCCc1cc(=O)oc2c1c(=O)[nH]c(=O)n2CF [Compound 813] | 0.256
O=c1cc(CCCC2CC2)c2c(=O)n(C(F)F)c(=O)[nH]c2o1 [Compound 814] | 0.161
CCCCc1cc(=O)oc2[nH]c(=O)n(C(F)F)c(=O)c12 [Compound 816] | 0.291
CCCc1cc(=O)oc2[nH]c(=O)n(CF)c(=O)c12 [Compound 817] | 1.45
CCCCc1cc(=O)oc2[nH]c(=O)n(CCF)c(=O)c12 [Compound 818] | 0.308
CCc1cc(=O)oc2[nH]c(=O)n(CCF)c(=O)c12 [Compound 819] | 1.54
CCCCc1cc(=O)oc2[nH]c(=O)n(CC(F)F)c(=O)c12 [Compound 821] | 0.142
O=c1nc(OCCF)c2c(CCCC3CC3)cc(=O)oc2[nH]1 [Compound 824] | 0.091
CCCc1cc(=O)oc2[nH]c(=O)nc(OCCF)c12 [Compound 825] | 0.616
COn1c(=O)nc(OCCF)c2c(CCC3CCC3)cc(=O)oc21 [Compound 826] | 3.25
CCCCc1cc(=O)oc2[nH]c(=O)nc(OCCF)c12 [Compound 827] | 0.69
CCCCc1cc(=O)oc2[nH]c(=O)nc(OCC(F)F)c12 [Compound 828] | 0.407
CCCCc1cc(=O)oc2[nH]c(=O)nc(OCC(F)(F)F)c12 [Compound 829] | 0.882
O=c1nc(OCC(F)F)c2c(CCC3CCC3)cc(=O)oc2[nH]1 [Compound 830] | 0.112
O=c1nc(OCC(F)F)c2c(CCCC3CC3)cc(=O)oc2[nH]1 [Compound 831] | 0.531
CCCc1cc(=O)oc2[nH]c(=O)nc(OCF)c12 [Compound 832] | 0.304
CCCCCCc1cc(=O)oc2[nH]c(=O)nc(OCF)c12 [Compound 833] | 0.511
